Reference: ChEMBL document CHEMBL1201862, “PubChem BioAssay data set” (2004)
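How tested: cells in 96-well plates exposed to compound for 48 hours at five concentrations. Here, GI50 denotes the concentration required for 50% inhibition of growth.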 The source made the active and inactive calls. No stated cut-off is given here; in the data, active = GI50 up to about 1.1 µM and inactive = higher.

What was measured:
Experiment in all cases: growth of human tumour cells (NCI), 48 h
SK-MEL-5 = tested on: SK-MEL-5
Malme-3M = tested on: Malme-3M
HT-29 = tested on: HT-29
A549 = tested on: A549
NCI-H460 = tested on: NCI-H460
U-251 = tested on: U-251
OVCAR-5 = tested on: OVCAR-5
SNB-19 = tested on: SNB-19
M14 = tested on: M14
RPMI-8226 = tested on: RPMI-8226
SK-OV-3 = tested on: SK-OV-3
OVCAR-8 = tested on: OVCAR-8
HCT-116 = tested on: HCT-116
DU-145 = tested on: DU-145
OVCAR-3 = tested on: OVCAR-3
TK-10 = tested on: TK-10
SK-MEL-2 = tested on: SK-MEL-2
HCC 2998 = tested on: HCC 2998
SR = tested on: SR
CCRF-CEM = tested on: CCRF-CEM

SMILES	GI50 (SK-MEL-5)	GI50 (Malme-3M)	GI50 (HT-29)	GI50 (A549)	GI50 (NCI-H460)	GI50 (U-251)	GI50 (OVCAR-5)	GI50 (SNB-19)	GI50 (M14)	GI50 (RPMI-8226)	GI50 (SK-OV-3)	GI50 (OVCAR-8)	GI50 (HCT-116)	GI50 (DU-145)	GI50 (OVCAR-3)	GI50 (TK-10)	GI50 (SK-MEL-2)	GI50 (HCC 2998)	GI50 (SR)	GI50 (CCRF-CEM)
Cc1cnc(Cl)nc1C(C#N)c1nc2ccccc2n1C (centres undefined)	> 100 µM (inactive)	> 100 µM (inactive)	35.9 µM (inactive)	62.5 µM (inactive)	46.1 µM (inactive)	19.5 µM (inactive)	64.3 µM (inactive)	41.6 µM (inactive)	> 100 µM (inactive)	85.9 µM (inactive)	> 100 µM (inactive)	38.6 µM (inactive)	23.2 µM (inactive)	> 100 µM (inactive)	> 100 µM (inactive)	36 µM (inactive)	–	–	–	–
Fc1ccc2c(c1)cc1ccc3cccc4ccc2c1c34	> 100 µM (inactive)	> 100 µM (inactive)	> 100 µM (inactive)	> 100 µM (inactive)	–	> 100 µM (inactive)	> 100 µM (inactive)	> 100 µM (inactive)	> 100 µM (inactive)	–	> 100 µM (inactive)	> 100 µM (inactive)	> 100 µM (inactive)	–	> 100 µM (inactive)	> 100 µM (inactive)	> 100 µM (inactive)	> 100 µM (inactive)	> 100 µM (inactive)	> 100 µM (inactive)
CSC[S+]([O-])C[C@H](CO)NC(=O)/C=C/c1c(C)[nH]c(=O)[nH]c1=O (some centres undefined)	2.44 µM (inactive)	0.492 µM (active)	1.85 µM (inactive)	1.15 µM (inactive)	0.48 µM (active)	–	2.06 µM (inactive)	0.52 µM (active)	1.16 µM (inactive)	1.79 µM (inactive)	1.25 µM (inactive)	1.43 µM (inactive)	1.66 µM (inactive)	–	1.13 µM (inactive)	4.02 µM (inactive)	1.08 µM (active)	1.45 µM (inactive)	2.04 µM (inactive)	1.19 µM (inactive)
CC12CO[C@@](C)(CC(S(=O)(=O)c3ccccc3)C1)O2 (some centres undefined)	> 100 µM (inactive)	> 100 µM (inactive)	> 100 µM (inactive)	> 100 µM (inactive)	> 100 µM (inactive)	> 100 µM (inactive)	> 100 µM (inactive)	> 100 µM (inactive)	> 100 µM (inactive)	> 100 µM (inactive)	> 100 µM (inactive)	> 100 µM (inactive)	> 100 µM (inactive)	–	> 100 µM (inactive)	–	> 100 µM (inactive)	> 100 µM (inactive)	> 100 µM (inactive)	> 100 µM (inactive)
CC(=O)OCC1OC(O/C=C(\CN=[N+]=[N-])C(C)=O)C(OC(C)=O)C(OC(C)=O)C1OC(C)=O (centres undefined)	13.2 µM (inactive)	3.05 µM (inactive)	11.4 µM (inactive)	20.7 µM (inactive)	21.6 µM (inactive)	12.2 µM (inactive)	16.5 µM (inactive)	27.6 µM (inactive)	8 µM (inactive)	1.74 µM (inactive)	45 µM (inactive)	6.01 µM (inactive)	3.51 µM (inactive)	–	8.59 µM (inactive)	6.19 µM (inactive)	16.1 µM (inactive)	19 µM (inactive)	2.37 µM (inactive)	1.39 µM (inactive)
Cc1cc(C)c(-c2noc(-c3ccc(Cl)cc3)c2C2=NCCCN2)c(C)c1	10.4 µM (inactive)	19.4 µM (inactive)	13.5 µM (inactive)	24 µM (inactive)	11.7 µM (inactive)	7.57 µM (inactive)	31.6 µM (inactive)	21.3 µM (inactive)	2.47 µM (inactive)	16.2 µM (inactive)	18.4 µM (inactive)	26.7 µM (inactive)	4.57 µM (inactive)	–	28 µM (inactive)	–	20.9 µM (inactive)	15.1 µM (inactive)	26.5 µM (inactive)	20.6 µM (inactive)
CCOC(=O)c1nc2ccccc2nc1Oc1ccc(C(=O)OC)cc1	> 100 µM (inactive)	> 100 µM (inactive)	> 100 µM (inactive)	> 100 µM (inactive)	> 100 µM (inactive)	> 100 µM (inactive)	> 100 µM (inactive)	> 100 µM (inactive)	> 100 µM (inactive)	> 100 µM (inactive)	> 100 µM (inactive)	> 100 µM (inactive)	> 100 µM (inactive)	> 100 µM (inactive)	> 100 µM (inactive)	> 100 µM (inactive)	> 100 µM (inactive)	–	–	41.8 µM (inactive)
CNS(=O)(=O)NN(C)S(=O)(=O)c1ccccc1	> 100 µM (inactive)	> 100 µM (inactive)	> 100 µM (inactive)	> 100 µM (inactive)	85.9 µM (inactive)	> 100 µM (inactive)	–	> 100 µM (inactive)	> 100 µM (inactive)	> 100 µM (inactive)	–	> 100 µM (inactive)	> 100 µM (inactive)	–	–	> 100 µM (inactive)	> 100 µM (inactive)	> 100 µM (inactive)	> 100 µM (inactive)	> 100 µM (inactive)
CC(C)(C)N/N=C(\C(=O)Nc1cccc(Cl)c1)C1C(=O)Nc2ccccc2[S+]1[O-] (centres undefined)	> 100 µM (inactive)	21.6 µM (inactive)	> 100 µM (inactive)	> 100 µM (inactive)	> 100 µM (inactive)	–	–	> 100 µM (inactive)	> 100 µM (inactive)	–	> 100 µM (inactive)	> 100 µM (inactive)	> 10 µM (inactive)	–	> 100 µM (inactive)	> 100 µM (inactive)	> 100 µM (inactive)	> 100 µM (inactive)	> 100 µM (inactive)	> 100 µM (inactive)
CCN(CC)CCNc1ccc2ncn3c4cc(O)ccc4c(=O)c1c23	3.66 µM (inactive)	3.97 µM (inactive)	1.95 µM (inactive)	3.31 µM (inactive)	3.04 µM (inactive)	1.53 µM (inactive)	11 µM (inactive)	3.9 µM (inactive)	4.5 µM (inactive)	2.17 µM (inactive)	9.62 µM (inactive)	1.15 µM (inactive)	1.57 µM (inactive)	–	3.37 µM (inactive)	6.65 µM (inactive)	8.59 µM (inactive)	3.84 µM (inactive)	2.26 µM (inactive)	1.32 µM (inactive)
C=C(C)CC(C)(c1cc2ccccc2n1C)N1CCOCC1 (centres undefined)	42.2 µM (inactive)	> 100 µM (inactive)	> 100 µM (inactive)	59.2 µM (inactive)	60.8 µM (inactive)	–	–	> 100 µM (inactive)	70 µM (inactive)	–	> 100 µM (inactive)	67.1 µM (inactive)	60.1 µM (inactive)	–	66.5 µM (inactive)	> 100 µM (inactive)	> 100 µM (inactive)	> 100 µM (inactive)	69 µM (inactive)	44.5 µM (inactive)
COC(=O)C12CC(C3CC31)C1CC12 (centres undefined)	> 100 µM (inactive)	> 100 µM (inactive)	> 100 µM (inactive)	> 100 µM (inactive)	> 100 µM (inactive)	> 100 µM (inactive)	> 100 µM (inactive)	> 100 µM (inactive)	> 100 µM (inactive)	> 100 µM (inactive)	> 100 µM (inactive)	> 100 µM (inactive)	> 100 µM (inactive)	–	> 100 µM (inactive)	> 100 µM (inactive)	–	> 100 µM (inactive)	> 100 µM (inactive)	> 100 µM (inactive)
O=C(CC1C(=O)Nc2ccccc2S1(=O)=O)Nc1cc(Cl)ccc1Cl (centres undefined)	13.5 µM (inactive)	17.9 µM (inactive)	17.4 µM (inactive)	16.7 µM (inactive)	13.6 µM (inactive)	10 µM (inactive)	24.4 µM (inactive)	15.5 µM (inactive)	14.3 µM (inactive)	2.87 µM (inactive)	–	17.5 µM (inactive)	14.4 µM (inactive)	–	14.6 µM (inactive)	20.1 µM (inactive)	14.9 µM (inactive)	20.5 µM (inactive)	7.16 µM (inactive)	17.8 µM (inactive)
O=c1n(-c2ccccc2)c(=O)n2n1C1C=CC2C2C(C1)C2(Cl)Cl (centres undefined)	> 100 µM (inactive)	> 100 µM (inactive)	–	> 100 µM (inactive)	> 100 µM (inactive)	> 100 µM (inactive)	> 100 µM (inactive)	> 100 µM (inactive)	> 100 µM (inactive)	–	> 100 µM (inactive)	> 100 µM (inactive)	> 100 µM (inactive)	–	> 100 µM (inactive)	> 100 µM (inactive)	> 100 µM (inactive)	> 100 µM (inactive)	> 100 µM (inactive)	> 100 µM (inactive)
C=C1C(=O)C23C(CC(OC(C)=O)C1[C@@H]2OC(C)=O)C1(C)C(OC(C)=O)CCC(C)(C)C1C[C@@H]3OC(C)=O (some centres undefined)	1.84 µM (inactive)	1.55 µM (inactive)	1.01 µM (active)	1.68 µM (inactive)	1.61 µM (inactive)	1.55 µM (inactive)	1.86 µM (inactive)	1.86 µM (inactive)	1.56 µM (inactive)	1.48 µM (inactive)	1.97 µM (inactive)	0.418 µM (active)	1.62 µM (inactive)	–	1.66 µM (inactive)	–	1.93 µM (inactive)	1.84 µM (inactive)	1.57 µM (inactive)	–
CC(C)(C)c1cc(C(O)(C(F)(F)F)C(F)(F)F)c2c(c1)C(C(F)(F)F)(C(F)(F)F)OC(C)(C(C)(C)C)N2 (centres undefined)	2.01 µM (inactive)	6.65 µM (inactive)	3.4 µM (inactive)	3.59 µM (inactive)	2.48 µM (inactive)	2.69 µM (inactive)	7.13 µM (inactive)	5.41 µM (inactive)	0.653 µM (active)	2.57 µM (inactive)	2.25 µM (inactive)	4.9 µM (inactive)	3.42 µM (inactive)	–	0.776 µM (active)	3.27 µM (inactive)	4.72 µM (inactive)	6.56 µM (inactive)	2.82 µM (inactive)	–
